For 31 compounds, IC50 results are on record in patent US20250145642A1, “BICYCLIC HETEROARENES AND METHODS OF THEIR USE” (Kineta, Inc., priority 2021, published 2025).

A value given as a limit tells only on which side of the number the result lay.

The target in the experiment is full-length human PIKFYVE (N-terminal GST-fusion) (Homo sapiens (Human), UniProt Q9Y2I7, L932S/Q1183K/Q995L/S1033A/S696N/T998S). Briefly: PIKfyve biochemical assay (ADP-Glo Kinase assay, Carna Biosciences). Particulars: ADP-Glo, full-length human GST-PIKFYVE, 10 μM to 3 nM; read-out: hPIKfyve IC50.
Chain of full-length human PIKFYVE (N-terminal GST-fusion) (Q9Y2I7 whole entry S696N/L932S/Q995L/T998S/S1033A/Q1183K, the tested form may be a part): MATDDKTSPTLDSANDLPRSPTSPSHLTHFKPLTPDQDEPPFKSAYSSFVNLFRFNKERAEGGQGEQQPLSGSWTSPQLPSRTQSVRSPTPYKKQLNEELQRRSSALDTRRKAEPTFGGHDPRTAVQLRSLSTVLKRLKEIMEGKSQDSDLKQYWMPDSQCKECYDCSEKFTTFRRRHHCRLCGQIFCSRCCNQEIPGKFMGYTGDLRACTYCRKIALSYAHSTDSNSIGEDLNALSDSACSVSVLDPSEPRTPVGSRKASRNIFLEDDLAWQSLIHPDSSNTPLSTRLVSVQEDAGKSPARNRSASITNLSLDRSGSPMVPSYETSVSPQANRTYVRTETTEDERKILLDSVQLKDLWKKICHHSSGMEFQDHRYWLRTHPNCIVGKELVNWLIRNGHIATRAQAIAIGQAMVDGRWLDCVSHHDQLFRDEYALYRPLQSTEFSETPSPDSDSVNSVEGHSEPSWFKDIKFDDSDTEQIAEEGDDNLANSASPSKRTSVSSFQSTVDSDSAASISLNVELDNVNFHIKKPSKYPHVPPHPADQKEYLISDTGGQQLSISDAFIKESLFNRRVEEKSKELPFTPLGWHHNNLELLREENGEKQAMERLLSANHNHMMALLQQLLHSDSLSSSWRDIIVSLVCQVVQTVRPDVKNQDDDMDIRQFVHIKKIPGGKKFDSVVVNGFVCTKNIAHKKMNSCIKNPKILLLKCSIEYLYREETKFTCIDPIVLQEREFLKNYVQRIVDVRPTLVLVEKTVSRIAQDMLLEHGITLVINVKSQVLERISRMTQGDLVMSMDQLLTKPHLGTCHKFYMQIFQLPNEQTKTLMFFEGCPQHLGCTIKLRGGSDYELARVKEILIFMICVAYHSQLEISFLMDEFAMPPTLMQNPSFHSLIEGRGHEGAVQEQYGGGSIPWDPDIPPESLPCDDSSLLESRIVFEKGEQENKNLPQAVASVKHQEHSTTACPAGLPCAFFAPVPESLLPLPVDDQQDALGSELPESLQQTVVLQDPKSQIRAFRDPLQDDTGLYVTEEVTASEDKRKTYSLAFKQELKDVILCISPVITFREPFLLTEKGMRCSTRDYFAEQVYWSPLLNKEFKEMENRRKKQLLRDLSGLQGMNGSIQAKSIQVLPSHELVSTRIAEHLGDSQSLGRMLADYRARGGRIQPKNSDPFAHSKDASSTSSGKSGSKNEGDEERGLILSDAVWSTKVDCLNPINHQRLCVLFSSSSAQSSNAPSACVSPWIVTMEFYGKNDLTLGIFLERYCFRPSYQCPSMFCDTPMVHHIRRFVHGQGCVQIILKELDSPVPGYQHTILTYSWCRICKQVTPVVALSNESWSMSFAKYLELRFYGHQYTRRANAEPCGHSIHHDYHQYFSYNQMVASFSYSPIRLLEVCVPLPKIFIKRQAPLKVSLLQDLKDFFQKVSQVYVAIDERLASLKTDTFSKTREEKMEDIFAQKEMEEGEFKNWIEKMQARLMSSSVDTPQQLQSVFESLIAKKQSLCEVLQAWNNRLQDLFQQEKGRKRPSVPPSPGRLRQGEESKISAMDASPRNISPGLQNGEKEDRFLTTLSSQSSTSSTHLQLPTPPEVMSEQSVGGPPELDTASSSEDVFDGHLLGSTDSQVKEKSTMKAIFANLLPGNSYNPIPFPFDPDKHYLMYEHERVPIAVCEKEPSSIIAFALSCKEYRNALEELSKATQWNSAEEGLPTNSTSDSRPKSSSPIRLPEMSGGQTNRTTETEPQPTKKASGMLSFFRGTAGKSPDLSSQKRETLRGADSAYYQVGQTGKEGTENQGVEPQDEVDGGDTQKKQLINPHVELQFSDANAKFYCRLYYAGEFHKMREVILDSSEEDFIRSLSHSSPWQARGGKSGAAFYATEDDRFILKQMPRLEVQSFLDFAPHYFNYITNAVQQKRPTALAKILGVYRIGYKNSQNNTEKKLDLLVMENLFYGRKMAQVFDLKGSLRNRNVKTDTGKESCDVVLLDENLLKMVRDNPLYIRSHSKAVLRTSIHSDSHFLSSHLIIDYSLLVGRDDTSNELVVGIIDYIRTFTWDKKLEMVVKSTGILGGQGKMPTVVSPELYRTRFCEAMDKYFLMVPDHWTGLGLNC
Source text: (§1) PIKfyve Biochemical Assay. The biochemical PIKfyve inhibition assays were run by Carna Biosciences according to proprietary methodology based on the Promega ADP-Glo™ Kinase assay. A full-length human PIKFYVE [1-2098(end) amino acids and S696N, L932S, Q995L, T998S, S1033A and Q1183K of the protein having the sequence set forth in NCBI Reference Sequence No. NP_055855.2] was expressed as N-terminal GST-fusion protein (265 kDa) using baculovirus expression system. GST-PIKFYVE was purified by using glutathione sepharose chromatography and used in an ADP-Glo™ Kinase assay (Promega). Reactions were set up by adding the test compound solution, substrate solution, ATP solution and kinase solution, each at 4× final concentrations. Reactions were prepared with assay buffer (50 mM MOPS, 1 mM DTT, pH7.2), mixed, and incubated in black 384 well polystyrene plates for 1 hour at room temperature. ADP-Glo™ reagent was then added for 40 minutes, followed by kinase detection reagent for an additional 40 minutes. The kinase activity was evaluated by detecting relative light units on a luminescence plate reader. Samples were run in duplicate from 10 μM to 3 nM. […] IC50 values were calculated from concentration vs % inhibition curves by fitting to a four-parameter logistic curve.
as §1, with “The” for “PIKfyve Biochemical Assay. The”, “accession number” for “the protein having the sequence set forth in NCBI Reference Sequence No.”, “curve. […]” for “curve.”
By IC50 is commonly meant the concentration at which inhibition is half-maximal. With `c1ccc(N2CCc3c(C4CCNCC4)nc(N4CCOCC4)nc32)cc1` [Compound 111, 4-(7-phenyl-4-(piperidin-4-yl)-6,7-dihydro-5H-pyrrolo[2,3-d]pyrimidin-2-yl)morpholine], the IC50 lay within 100 to 1000 nM.
In the case of `CC(C)(O)Cc1nc(N2CCOCC2)nc2c1CCN2c1ccccc1` [Compound 46, 2-methyl-1-(2-morpholino-7-phenyl-6,7-dihydro-5H-pyrrolo[2,3-d]pyrimidin-4-yl)propan-2-ol] it was 10 to 100 nM.
For the compound `Cc1cccc(-c2ccn(-c3nc(N4CCOCC4)nc4c3CCN4c3cccnc3)n2)c1` [Compound 83, 4-(7-(pyridin-3-yl)-4-(3-(m-tolyl)-1H-pyrazol-1-yl)-6,7-dihydro-6H-pyrrolo[2,3-d]pyrimidin-2-yl)morpholine], the IC50 lay within 10 to 100 nM.
Take `c1cncc(N2CCc3c(-c4ccnnc4)nc(N4CCOCC4)nc32)c1` [Compound 97]: the IC50 fell in the range of 10 to 100 nM.
In the case of `c1ccc(N2CCc3c(-c4cncnc4)nc(N4CCOCC4)nc32)cc1` [Compound 100, 4-(7-phenyl-4-(pyrimidin-5-yl)-6,7-dihydro-5H-pyrrolo[2,3-d]pyrimidin-2-yl)morpholine], the IC50 lay within 10 to 100 nM.
The same measure for `c1ccc(-c2c[nH]c3c(-c4ccncc4)nc(N4CCOCC4)nc23)nc1` [Compound 136, 4-(7-(pyridin-2-yl)-4-(pyridin-4-yl)-6H-pyrrolo[3,2-d]pyrimidin-2-yl)morpholine]: 10 to 100 nM.
As for `c1ccc(N2CCc3c(N4CCOCC4)nc(N4CCOCC4)nc32)cc1` [Compound 78, 4,4′-(7-phenyl-6,7-dihydro-5H-pyrrolo[2,3-d]pyrimidine-2,4-diyl)dimorpholine], the IC50 was 10 to 100 nM.
In the case of `CN1CC(COc2nc(N3CCOCC3)nc3c2CCN3c2cccnc2)C1` [Compound 39, 4-(4-((1-methylazetidin-3-yl)methoxy)-7-(pyridin-3-yl)-6,7-dihydro-5H-pyrrolo[2,3-d]pyrimidin-2-yl)morpholine] it was 1000 to 10000 nM.
As to `CN1CCC(c2nc(N3CCOCC3)nc3c2CCN3c2ccccc2)C1` (stereo not shown) [Compound 121, 4-(4-(1-methylpyrrolidin-3-yl)-7-phenyl-6,7-dihydro-H-pyrrolo[2,3-d]pyrimidin-2-yl)morpholine], the IC50 lay within 100 to 1000 nM.
In the case of `c1ccc(N2CCc3c(C4CCNC4)nc(N4CCOCC4)nc32)cc1` (stereo not shown) [Compound 116, 4-(7-phenyl-4-(pyrrolidin-3-yl)-6,7-dihydro-5H-pyrrolo[2,3-d]pyrimidin-2-yl)morpholine] it was 10 to 100 nM; in that of `c1cncc(N2CCc3c(-c4ccoc4)nc(N4CCOCC4)nc32)c1` [Compound 88, 4-(4-(furan-3-yl)-7-(pyridin-3-yl)-6,7-dihydro-6H-pyrrolo[2,3-d]pyrimidin-2-yl)morpholine], 10 to 100 nM; in that of `CN1CCCC(COc2nc(N3CCOCC3)nc3c2CCN3c2cncnc2)C1` (stereo not shown) [Compound 16, 4-(4-((1-methylpiperidin-3-yl)methoxy)-7-(pyrimidin-5-yl)-6,7-dihydro-5H-pyrrolo[2,3-d]pyrimidin-2-yl)morpholine], 1000 to 10000 nM.
Regarding `COc1cccc(-c2nccc(-c3nc(N4CCOCC4)nc4c3CCN4c3cccnc3)n2)c1` [Compound 123, 4-(4-(2-(3-methoxyphenyl)pyrimidin-4-yl)-7-(pyridin-3-yl)-6,7-dihydro-5H-pyrrolo[2,3-d]pyrimidin-2-yl)morpholine], the IC50 was in the range of 100 to 1000 nM.
The same measure for `c1ccc(N2CCc3c(OCc4cnccn4)nc(N4CCOCC4)nc32)cc1` [Compound 15, 4-(7-phenyl-4-(pyrazin-2-ylmethoxy)-6,7-dihydro-5H-pyrrolo[2,3-d]pyrimidin-2-yl)morpholine]: 10 to 100 nM.
Take `CN1CCC(OCc2nc(N3CCOCC3)nc3c2CCN3c2cccnc2)C1` (stereo not shown) [Compound 66, 4-(4-((1-methylpyrrolidin-3-yloxy)methyl)-7-(pyridin-3-yl)-6,7-dihydro-5H-pyrrolo[2,3-d]pyrimidin-2-yl)morpholine]: the IC50 was in the range of 1000 to 10000 nM.
With `CN1CCN(c2nc(N3CCOCC3)nc3c2CCN3c2cccnc2)CC1` [Compound 81, 4-(4-(4-methylpiperazin-1-yl)-7-(pyridin-3-yl)-6,7-dihydro-5H-pyrrolo[2,3-d]pyrimidin-2-yl)morpholine], the IC50 lay within 1000 to 10000 nM.
For the compound `c1cc(-c2c[nH]c3c(OCc4cccnn4)nc(N4CCOCC4)nc23)cc(-n2cccn2)c1` [Compound 150, 4-(7-(3-(1H-pyrazol-1-yl)phenyl)-4-(pyridazin-3-ylmethoxy)-6H-pyrrolo[3,2-d]pyrimidin-2-yl)morpholine], the IC50 is 10 to 100 nM.
For `c1ccc(N2CCc3c(-c4ccncc4)nc(N4CCOCC4)nc32)cc1` [Compound 92, 4-(7-phenyl-4-(pyridin-4-yl)-6,7-dihydro-5H-pyrrolo[2,3-d]pyrimidin-2-yl)morpholine], the IC50 was 10 to 100 nM.
For the compound `c1ccc(N2CCc3c(COc4cccnc4)nc(N4CCOCC4)nc32)cc1` [Compound 59, 4-(7-phenyl-4-((pyridin-3-yloxy)methyl)-6,7-dihydro-6H-pyrrolo[2,3-d]pyrimidin-2-yl)morpholine], the IC50 fell in the range of 100 to 1000 nM.
In the case of `c1ccc(-n2cnc3c(-c4ccncc4)nc(N4CCOCC4)nc32)cc1` [Compound 128, 4-(9-phenyl-6-(pyridin-4-yl)-9H-purin-2-yl)morpholine], the IC50 was 10 to 100 nM.
Take `c1ncc(N2CCc3c(OCC4CCOCC4)nc(N4CCOCC4)nc32)cn1` [Compound 9, 4-(7-(pyrimidin-5-yl)-4-((tetrahydro-2H-pyran-4-yl)methoxy)-6,7-dihydro-5H-pyrrolo[2,3-d]pyrimidin-2-yl)morpholine]: the IC50 fell in the range of 100 to 1000 nM.
On to `c1ccc(N2CCc3c(OCc4cccnn4)nc(N4CCOCC4)nc32)cc1` [Compound 27, 4-(7-phenyl-4-(pyridazin-3-ylmethoxy)-6,7-dihydro-5H-pyrrolo[2,3-d]pyrimidin-2-yl)morpholine], for which the IC50 fell in the range of 10 to 100 nM.
On to `O=c1ccccn1-c1nc(N2CCOCC2)nc2c1CCN2c1ccccc1` [Compound 50, 1-(2-morpholino-7-phenyl-6,7-dihydro-5H-pyrrolo[2,3-d]pyrimidin-4-yl)pyridin-2(1H)-one], for which the IC50 is 100 to 1000 nM.
For the compound `c1cncc(N2CCc3c(N4Cc5ccccc5C4)nc(N4CCOCC4)nc32)c1` [Compound 80, 4-(4-(isoindolin-2-yl)-7-(pyridin-3-yl)-6,7-dihydro-5H-pyrrolo[2,3-d]pyrimidin-2-yl)morpholine], the IC50 lay in the range of 10 to 100 nM.
In the case of `c1ccc(N2CCc3c(OCc4ccccn4)nc(N4CCOCC4)nc32)cc1` [Compound 24, 4-(7-phenyl-4-(pyridin-2-ylmethoxy)-6,7-dihydro-5H-pyrrolo[2,3-d]pyrimidin-2-yl)morpholine] it was 10 to 100 nM; in that of `CN1CCC(c2nc(N3CCOCC3)nc3c2CCN3c2cccnc2)CC1` [Compound 109, 4-(4-(1-methylpiperidin-4-yl)-7-(pyridin-3-yl)-6,7-dihydro-5H-pyrrolo[2,3-d]pyrimidin-2-yl)morpholine], 1000 to 10000 nM.
The same measure for `COc1cccc(C#Cc2nc(N3CCOCC3)nc3c2CCN3c2cccnc2)c1` [Compound 85, 4-(4-((3-methoxyphenyl)ethynyl)-7-(pyridin-3-yl)-6,7-dihydro-5H-pyrrolo[2,3-d]pyrimidin-2-yl)morpholine]: 100 to 1000 nM; for `CC(C)(C)OC(=O)N1CCC(c2nc(N3CCOCC3)nc3c2CCN3c2ccccc2)CC1` [Compound 110, tert-butyl 4-(2-morpholino-7-phenyl-6,7-dihydro-5H-pyrrolo[2,3-d]pyrimidin-4-yl)piperidine-1-carboxylate]: 10 to 100 nM; for `CC(C)(C)OC(=O)N1CC(c2nc(N3CCOCC3)nc3c2CCN3c2ccccc2)C1` [Compound 113, tert-butyl 3-(2-morpholino-7-phenyl-6,7-dihydro-5H-pyrrolo[2,3-d]pyrimidin-4-yl)azetidine-1-carboxylate]: < 10 nM.
The same measure for `CN1CCCC(c2nc(N3CCOCC3)nc3c2ncn3-c2cccnc2)C1` (stereo not shown) [Compound 127, 4-(6-(1-methylpiperidin-3-yl)-9-(pyridin-3-yl)-9H-purin-2-yl)morpholine]: > 10000 nM; for `c1ccc(-c2cncc(N3CCc4c(Oc5cccnc5)nc(N5CCOCC5)nc43)c2)cc1` [Compound 67, 4-(7-(5-phenylpyridin-3-yl)-4-(pyridin-3-yloxy)-6,7-dihydro-5H-pyrrolo[2,3-d]pyrimidin-2-yl)morpholine]: 10 to 100 nM.
